Columns and labels:
Vanilloid receptor [1] = biological target: T1, Vanilloid receptor (Rattus norvegicus, UniProt Q9ERZ8+Q9WUD2+O35433); assay: Ability to inhibit [Ca2+] influx neonatal rat cultured spinal sensory neurons.; assay type: functional
Vanilloid receptor [2] = biological target: T1, Vanilloid receptor; assay: Ability to cause [Ca2+] influx in neonatal rat cultured spinal sensory neurons.; assay type: functional

| IC50 (Vanilloid receptor [1]) | EC50 (Vanilloid receptor [2]) | Structure (SMILES) |
| --- | --- | --- |
| > 30 µM | > 100 µM | CCC(CCc1ccc(O)c(OC)c1)NC(=O)NCCc1ccccc1 (stereo not given) |
| 20.9 µM | > 100 µM | CCC(CCc1ccc(O)c(OC)c1)N(Cc1ccccc1)/C(S)=N/CCc1ccccc1 (stereo not given) |
| > 30 µM | > 100 µM | COc1cc(CCC(O/C(S)=N/CCc2ccccc2)c2ccccc2)ccc1O (stereo not given) |
| 10.7 µM | > 100 µM | COc1cc(CCC(CCc2ccc(C(F)(F)F)cc2)O/C(S)=N/CCc2ccccc2)ccc1O (stereo not given) |
| > 30 µM | > 100 µM | CCC(CCc1ccc(O)c(OC)c1)C/C(S)=N/CCc1ccccc1 (stereo not given) |
| > 30 µM | > 100 µM | CCC(CCc1ccc(O)c(OC)c1)N(CCc1ccccc1)/C(S)=N/CCc1ccccc1 (stereo not given) |
| > 30 µM | > 100 µM | COc1cc(CC(C)O/C(S)=N/CCc2ccccc2)ccc1O (stereo not given) |
| 27.2 µM | > 100 µM | CCC(CCc1ccc(O)c(OC)c1)N(C)/C(S)=N/CCc1ccccc1 (stereo not given) |
| 27.9 µM | > 100 µM | CCCC(CCc1ccc(O)c(OC)c1)O/C(S)=N/CCc1ccccc1 (stereo not given) |
| 6.3 µM | > 100 µM | CCC(CCc1ccc(O)c(OC)c1)O/C(S)=N/CCc1ccccc1 (stereo not given) |
| 0.6 µM | > 100 µM | Oc1cc2c(cc1O)CN(C(=S)NCCc1ccc(Cl)cc1)CCC2 [CAPSAZEPINE] |
| > 30 µM | > 100 µM | COc1cc(CCC(CCCc2ccccc2)O/C(S)=N/CCc2ccccc2)ccc1O (stereo not given) |
| 28.5 µM | > 100 µM | CCC(CCc1ccc(O)c(OC)c1)/N=C(\S)NCCc1ccccc1 (stereo not given) |
| > 30 µM | > 100 µM | COc1cc(CCCO/C(S)=N/CCc2ccccc2)ccc1O |
| > 30 µM | > 100 µM | COc1cc(CCCC(C)O/C(S)=N/CCc2ccccc2)ccc1O (stereo not given) |
| > 30 µM | > 100 µM | CCC(CCc1ccc(O)c(OC)c1)CC(=O)NCCc1ccccc1 (stereo not given) |
| 25 µM | > 100 µM | COc1cc(CCC(Cc2ccccc2)O/C(S)=N/CCc2ccccc2)ccc1O (stereo not given) |
| 9.9 µM | > 100 µM | COc1cc(CCC(C)O/C(S)=N/CCc2ccccc2)ccc1O (stereo not given) |
| > 30 µM | > 100 µM | CCC(CCc1ccc(O)c(OC)c1)OC(=O)NCCc1ccccc1 (stereo not given) |
| 19.2 µM | > 100 µM | COc1cc(CCC(CCc2ccccc2)O/C(S)=N/CCc2ccccc2)ccc1O (stereo not given) |

Source: ChEMBL document CHEMBL1136430, “Chain-branched acyclic phenethylthiocarbamates as vanilloid receptor antagonists” (Bioorg Med Chem Lett, 2003)
